In US6812377B2, “Genetic engineering of syringyl-enriched lignin in plants” (Board of Control of Michigan Technological University, priority 2000, dated 2004):

How the values were obtained:
[1] = target: T1, recombinant PtCAD protein (Populus tremuloides, UniProt Q9M632); experiment: Kinetic properties of the recombinant PtCAD protein (HPLC-UV/MS); assay type: biochemical; conditions: substrate of PtCAD; relative, coniferaldehyde = 100
Procedure: To characterize the enzyme pH optima, the substrate and recombinant PtCAD or PtSAD protein concentrations described above were used in sodium phosphate buffers, pH 5 to 8.5. […] For inhibition kinetics, the PtCAD-mediated reduction of sinapaldehyde (1 to 200 μM) was assayed in the presence of 1 to 5 μM coniferaldehyde, and the PtSAD-catalyzed reduction of coniferaldehyde (1 to 200 μM) was assayed in the presence of 1 to 5 μM sinapaldehyde. All reactions were terminated by the addition of 10 μL of 6 N HCI (to bring the pH to 2) and 500 ng of internal standard o-coumaric acid and analyzed by HPLC-UV/MS. An aliquot of 100 μL of reaction mixture was injected directly onto a Supelcosil LC-ABZ column (15 cm×4.6 mm×5 μm; Supelco, Bellefonte, Pa.) with automatic sample injection and separated isocratically with a Hewlett-Packard (HP) 1100 liquid chromatography system at 40° C. and a flow rate of 0.25 mL/min. […] The reaction products were identified and confirmed by comparing the ion fragmentation patterns of the product and the authentic standard in MS scanning mode at 70 V. The product quantity and Km, Vmax, kcat, and apparent inhibition constant (Ki) values (means±SE) were determined as described (Osakabe et al., 1999; Li et al., 2000). The results of the inhibition kinetics for both the CAD enzyme (i.e. Table 2) and the SAD enzyme (i.e., Table 3) using a variety of substrates are illustrated below.

[2] = tested on: PtSAD recombinant protein; experiment: SAD enzyme activity assay, single and mixed substrates (HPLC-MS); assay type: biochemical, Populus tremuloides; conditions: mixture of coniferaldehyde and sinapaldehyde, pH 7.0
Procedure: After 10 min at 30° C., the reaction was terminated and extracted with 0.5 ml ethyl acetate. The extraction was repeated 4 times and the combined ethyl acetate was evaporated and dissolved in the HPLC mobile phase for LC-MS identification and quantitation of the reaction products as we did before (Osakabe et al., 1999; Li et al. 2000). […] The SAD reactions with mixed substrates, sinapaldehyde and coniferyl aldehyde, were therefore conducted at the optimal pH 7.0 under above-described conditions. […] To characterize the enzyme pH optima, the substrate and recombinant PtCAD or PtSAD protein concentrations described above were used in sodium phosphate buffers, pH 5 to 8.5. All reactions were for 10 minutes at 30° C. An aliquot of 100 μL of reaction mixture was injected directly onto a Supelcosil LC-ABZ column (15 cm×4.6 mm×5 μm; Supelco, Bellefonte, Pa.) with automatic sample injection and separated isocratically with a Hewlett-Packard (HP) 1100 liquid chromatography system at 40° C. and a flow rate of 0.25 mL/min. […] The reaction products were identified and confirmed by comparing the ion fragmentation patterns of the product and the authentic standard in MS scanning mode at 70 V. The product quantity and Km, Vmax, kcat, and apparent inhibition constant (Ki) values (means±SE) were determined as described (Osakabe et al., 1999; Li et al., 2000). The results of the inhibition kinetics for both the CAD enzyme (i.e. Table 2) and the SAD enzyme (i.e., Table 3) using a variety of substrates are illustrated below.

[3] = target: T1, recombinant PtCAD protein; experiment: PtCAD enzyme activity with a mixture of coniferaldehyde and sinapaldehyde (HPLC-MS); assay type: biochemical
Excerpt: A guaiacyl pathway gene encoding coniferyl alcohol dehydrogenase (CAD, FIG. 1) from Populus tremuloides (GenBank #AF217957) was first cloned. This cDNA was designated as PtCAD (GenBank #AF217957). E. coli-expressed recombinant PtCAD protein was characterized for its catalytic activity with coniferaldehyde and sinapaldehyde. Because monolignol biosynthetic pathway intermediates are present together in lignifying tissues (Osakabe et al., 1999; Li et al. 2000), the PtCAD enzyme activity with a mixture of coniferaldehyde and sinapaldehyde was assayed. As shown in FIG. 5 (a) and (c), the reaction mixture was separated by HPLC after the enzyme reaction. […]
An aliquot of 100 μL of reaction mixture was injected directly onto a Supelcosil LC-ABZ column (15 cm×4.6 mm×5 μm; Supelco, Bellefonte, Pa.) with automatic sample injection and separated isocratically with a Hewlett-Packard (HP) 1100 liquid chromatography system at 40° C. and a flow rate of 0.25 mL/min. […] The reaction products were identified and confirmed by comparing the ion fragmentation patterns of the product and the authentic standard in MS scanning mode at 70 V. The product quantity and Km, Vmax, kcat, and apparent inhibition constant (Ki) values (means±SE) were determined as described (Osakabe et al., 1999; Li et al., 2000). […]

T1 sequence (Q9M632 entry or part of it): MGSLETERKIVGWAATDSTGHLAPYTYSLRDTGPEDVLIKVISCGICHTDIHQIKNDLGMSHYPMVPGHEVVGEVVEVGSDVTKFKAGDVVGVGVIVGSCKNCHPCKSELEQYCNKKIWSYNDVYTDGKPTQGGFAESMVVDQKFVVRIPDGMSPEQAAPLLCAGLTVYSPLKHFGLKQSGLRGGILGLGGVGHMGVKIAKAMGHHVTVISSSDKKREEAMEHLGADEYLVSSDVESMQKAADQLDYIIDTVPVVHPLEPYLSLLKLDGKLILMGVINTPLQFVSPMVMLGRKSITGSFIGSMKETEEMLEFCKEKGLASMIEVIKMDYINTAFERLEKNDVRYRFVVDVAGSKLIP

With `COc1cc(/C=C/C=O)ccc1O` [Coniferaldehyde] the Vmax/Km [1] was 100%, the “reaction of PtSAD with the substrate in a mixture” value [2] was “would not react” and the “reaction of PtCAD with the substrate in a mixture” value [3] was “Only coniferyl alcohol was formed”.
